Reference: patent US20040235922A1, “Compositions and methods for inducing adipose tissue cell death” (priority 2003, published 2004)

Test system: EPI/PAR and RP fat pads
Experiment: EPI/PAR and RP fat pad apoptosis, % DNA fragmentation (Example 2)
Format: in vivo
Conditions: 200 ppm in diet, 21 days, WT and GDF-8 KO mice
Experimental: Animals: Twelve-week old male (n=10) and female (n=10) GDF-8 (−/−) knockout mice and male (n=10) and female (n=10) GDF-8 (+/+) WT mice were used in the study. GDF-8 knockout mice, which were derived from the 129/SvJ mouse strain, were originally obtained from MetaMorphix Inc. and were bred in-house for the study. Mice were housed singly in suspended wire cages in a room maintained at 22±1 C and with a 12:12 hour light/dark cycle. Mice were provided ground rodent chow (ProLab® RMH 2500; Purina Mills, St. Louis, Mo.) and water ad libitum. Mice were cared for in accordance with the Guide for the Care and Use of Laboratory Animals.
Materials: Clenbuterol (Sigma Chemical Company, St. Louis, Mo., item# C5423), was thoroughly mixed into the ground rodent chow to provide a 200 ppm concentration.
DNA Isolation and Apoptosis Assay: DNA was isolated from fresh fat tissues and separated into two fractions: fragmented and genomic DNA. The samples were first run on an agarose gel to identify a ladder pattern of internucleosomal DNA degradation, which is characteristic of apoptosis (Qian, H., M. J. Azain, M. M. Compton, D. L. Hartzell, G. J. Hausman, and C. A. Baile, Brain administration of leptin causes deletion of adipocytes by apoptosis. Endocrinology, 1998. 139(2): p. 791-4). Apoptosis was then quantified as the ratio of fragmented- to total-DNA as previously described (Gullicksen, P. S., R. G. Dean, and C. A. Baile, Detection of DNA Fragmentation and Apoptotic Proteins, and Quantification of Uncoupling Protein Expression by Real-Time RT-PCR in Adipose Tissue. J Biochem Biophys Methods, 2004. 58(1): p. 1-13). […] DNA content was measured using PicoGreen (Molecular Probes, Inc., Eugene, Oreg.) on a SpectraMax Gemini Spectrofluorometer (Molecular Devices, Sunnyvale, Calif.). […] Apoptosis was verified by the presence of a DNA ladder pattern, which was visualized by a Fluor Chem 8000 fluorescence imaging system (Alpha Innotech, San Leandro, Calif.).
Statistical Analysis: The study was analyzed as a 2×2×2 factorial design (N=5/cell). […]

## CC(C)(C)NCC(O)c1cc(Cl)c(N)c(Cl)c1 (stereo not drawn) [Clenbuterol, clenbuterol]
  Adipocyte apoptosis in EPI/PAR and RP fat pads compared to control: increased
Mean ± SEM, control 0.9 ± 0.1
  % DNA Fragmentation EPI/PAR: 2.5 ± 0.2 %
Mean ± SEM, control 0.9 ± 0.2
  % DNA Fragmentation RP: 2.5 ± 0.2 %
